Measurements: PubChem BioAssay AID1259407 (Chemical Carcinogenesis Research Information System (CCRIS), 2018)
Calls of active or inactive are those of the source. The rule behind the calls is not given here.

Tested on: CCRIS mutagenicity, Ames/micronucleus/aberration tests
Experiment: CCRIS mutagenicity studies
[1] = Test System: AMES SALMONELLA TYPHIMURIUM, Strain/Indicator: TA98, Metabolic Activation: HAMSTER, LIVER, S-9, AROCLOR 1254 (10%), Method: PREINCUBATION
[2] = Test System: AMES SALMONELLA TYPHIMURIUM, Strain/Indicator: TA98, Metabolic Activation: NONE, Method: PREINCUBATION
[3] = Test System: AMES SALMONELLA TYPHIMURIUM, Strain/Indicator: TA98, Metabolic Activation: RAT, LIVER, S-9, AROCLOR 1254 (10%), Method: PREINCUBATION
[4] = Test System: AMES SALMONELLA TYPHIMURIUM, Strain/Indicator: TA100, Metabolic Activation: HAMSTER, LIVER, S-9, AROCLOR 1254 (10%), Method: PREINCUBATION
[5] = Test System: AMES SALMONELLA TYPHIMURIUM, Strain/Indicator: TA100, Metabolic Activation: NONE, Method: PREINCUBATION
[6] = Test System: AMES SALMONELLA TYPHIMURIUM, Strain/Indicator: TA100, Metabolic Activation: RAT, LIVER, S-9, AROCLOR 1254 (10%), Method: PREINCUBATION
[7] = Test System: AMES SALMONELLA TYPHIMURIUM, Strain/Indicator: TA1535, Metabolic Activation: HAMSTER, LIVER, S-9, AROCLOR 1254 (10%), Method: PREINCUBATION
[8] = Test System: AMES SALMONELLA TYPHIMURIUM, Strain/Indicator: TA1535, Metabolic Activation: NONE, Method: PREINCUBATION
[9] = Test System: AMES SALMONELLA TYPHIMURIUM, Strain/Indicator: TA1535, Metabolic Activation: RAT, LIVER, S-9, AROCLOR 1254 (10%), Method: PREINCUBATION
[10] = Test System: AMES SALMONELLA TYPHIMURIUM, Strain/Indicator: TA1537, Metabolic Activation: NONE, Method: PREINCUBATION
[11] = Test System: MOUSE LYMPHOMA, Strain/Indicator: L5178Y (TK+/TK-), Metabolic Activation: NONE, Method: SUSPENSION/PLATE
[12] = Test System: AMES SALMONELLA TYPHIMURIUM, Strain/Indicator: TA98, Metabolic Activation: NONE, Method: STANDARD PLATE
[13] = Test System: AMES SALMONELLA TYPHIMURIUM, Strain/Indicator: TA98, Metabolic Activation: RAT, LIVER, S-9, AROCLOR 1254, Method: STANDARD PLATE

Measured: mutagenic call

CCSCCC(N)C(=O)O (stereo not given)
inactive: Test System: AMES SALMONELLA TYPHIMURIUM, Strain/Indicator: TA97, Metabolic Activation: HAMSTER, LIVER, S-9, AROCLOR 1254 (10%), Method: PREINCUBATION inactive; negative | Test System: AMES SALMONELLA TYPHIMURIUM, Strain/Indicator: TA97, Metabolic Activation: HAMSTER, LIVER, S-9, AROCLOR 1254 (30%), Method: PREINCUBATION inactive; negative | Test System: AMES SALMONELLA TYPHIMURIUM, Strain/Indicator: TA97, Metabolic Activation: NONE, Method: PREINCUBATION inactive; negative | Test System: AMES SALMONELLA TYPHIMURIUM, Strain/Indicator: TA97, Metabolic Activation: RAT, LIVER, S-9, AROCLOR 1254 (10%), Method: PREINCUBATION inactive; negative | Test System: AMES SALMONELLA TYPHIMURIUM, Strain/Indicator: TA97, Metabolic Activation: RAT, LIVER, S-9, AROCLOR 1254 (30%), Method: PREINCUBATION inactive; negative | [1] inactive; negative | Test System: AMES SALMONELLA TYPHIMURIUM, Strain/Indicator: TA98, Metabolic Activation: HAMSTER, LIVER, S-9, AROCLOR 1254 (30%), Method: PREINCUBATION inactive; negative | [2] inactive; negative | [3] inactive; negative | Test System: AMES SALMONELLA TYPHIMURIUM, Strain/Indicator: TA98, Metabolic Activation: RAT, LIVER, S-9, AROCLOR 1254 (30%), Method: PREINCUBATION inactive; negative | [4] inactive; negative | Test System: AMES SALMONELLA TYPHIMURIUM, Strain/Indicator: TA100, Metabolic Activation: HAMSTER, LIVER, S-9, AROCLOR 1254 (30%), Method: PREINCUBATION inactive; negative | [5] inactive; negative | [6] inactive; negative | Test System: AMES SALMONELLA TYPHIMURIUM, Strain/Indicator: TA100, Metabolic Activation: RAT, LIVER, S-9, AROCLOR 1254 (30%), Method: PREINCUBATION inactive; negative | Test System: AMES SALMONELLA TYPHIMURIUM, Strain/Indicator: TA104, Metabolic Activation: HAMSTER, LIVER, S-9, AROCLOR 1254 (10%), Method: PREINCUBATION inactive; negative | Test System: AMES SALMONELLA TYPHIMURIUM, Strain/Indicator: TA104, Metabolic Activation: HAMSTER, LIVER, S-9, AROCLOR 1254 (30%), Method: PREINCUBATION inactive; negative | Test System: AMES SALMONELLA TYPHIMURIUM, Strain/Indicator: TA104, Metabolic Activation: NONE, Method: PREINCUBATION inactive; negative | Test System: AMES SALMONELLA TYPHIMURIUM, Strain/Indicator: TA104, Metabolic Activation: RAT, LIVER, S-9, AROCLOR 1254 (10%), Method: PREINCUBATION inactive; negative | Test System: AMES SALMONELLA TYPHIMURIUM, Strain/Indicator: TA104, Metabolic Activation: RAT, LIVER, S-9, AROCLOR 1254 (30%), Method: PREINCUBATION inactive; negative | [7] inactive; negative | Test System: AMES SALMONELLA TYPHIMURIUM, Strain/Indicator: TA1535, Metabolic Activation: HAMSTER, LIVER, S-9, AROCLOR 1254 (30%), Method: PREINCUBATION inactive; negative | [8] inactive; negative | [9] inactive; negative | Test System: AMES SALMONELLA TYPHIMURIUM, Strain/Indicator: TA1535, Metabolic Activation: RAT, LIVER, S-9, AROCLOR 1254 (30%), Method: PREINCUBATION inactive; negative

CC(C)CCCCCCCOC(=O)c1ccccc1C(=O)OCCCCCCCC(C)C
inactive: [1] inactive; negative | [2] inactive; negative | [3] inactive; negative | [4] inactive; negative | [5] inactive; negative | [6] inactive; negative | [7] inactive; negative | [8] inactive; negative | [9] inactive; negative | Test System: AMES SALMONELLA TYPHIMURIUM, Strain/Indicator: TA1537, Metabolic Activation: HAMSTER, LIVER, S-9, AROCLOR 1254 (10%), Method: PREINCUBATION inactive; negative | [10] inactive; negative | Test System: AMES SALMONELLA TYPHIMURIUM, Strain/Indicator: TA1537, Metabolic Activation: RAT, LIVER, S-9, AROCLOR 1254 (10%), Method: PREINCUBATION inactive; negative | [11] inactive; negative | Test System: MOUSE LYMPHOMA, Strain/Indicator: L5178Y (TK+/TK-), Metabolic Activation: RAT LIVER S-9, Method: SUSPENSION/PLATE inactive; negative

Cc1ccc2nc3ccccc3c(N)c2c1
active: [10] active; positive

O=[N+]([O-])c1cc2c([nH]c3ccccc32)c([N+](=O)[O-])c1O
active: Test System: AMES SALMONELLA TYPHIMURIUM, Strain/Indicator: TA98(NR), Metabolic Activation: NONE, Method: STANDARD PLATE active; positive | Test System: AMES SALMONELLA TYPHIMURIUM, Strain/Indicator: TA98(NR), Metabolic Activation: RAT, LIVER, S-9, AROCLOR 1254, Method: STANDARD PLATE active; positive | [12] active; positive | [13] active; positive

O=[N+]([O-])c1ccc2cc3c(cc2c1)C=C[C@@H](O)[C@@H]3O
active: [12] active; positive | [13] active; positive

C=C1N(C)c2ccccc2C1(C)C
active: Test System: MOUSE LYMPHOMA, Strain/Indicator: L5178Y (TK+/TK-), Metabolic Activation: RAT, LIVER, S-9, AROCLOR 1254, Method: SUSPENSION/PLATE active; positive. reevaluation of results: positive | Test System: Mouse lymphoma, Strain/Indicator: L5178Y (tk+/tk-), Metabolic Activation: Rat, Liver, S-9, Aroclor 1254, Method: Suspension/plate active; positive
inactive: [11] inactive; negative. reevaluation of results: negative | Test System: Mouse lymphoma, Strain/Indicator: L5178Y (tk+/tk-), Metabolic Activation: None, Method: Suspension/plate inactive; negative

O[C@@H]1[C@@H]2O[C@@H]2c2c(ccc3ccc4ccccc4c23)[C@H]1O
active: Test System: E. COLI, Strain/Indicator: CL101P, Metabolic Activation: NONE, Method: PREINCUBATION active; positive | Test System: E. COLI, Strain/Indicator: CL102P, Metabolic Activation: NONE, Method: PREINCUBATION active; positive | Test System: E. COLI, Strain/Indicator: CL103P, Metabolic Activation: NONE, Method: PREINCUBATION active; positive | Test System: E. COLI, Strain/Indicator: CL104P, Metabolic Activation: NONE, Method: PREINCUBATION active; positive | Test System: E. COLI, Strain/Indicator: CL105P, Metabolic Activation: NONE, Method: PREINCUBATION active; positive | Test System: E. COLI, Strain/Indicator: CL106P, Metabolic Activation: NONE, Method: PREINCUBATION active; positive

Cc1cc2ccccc2c2cc([N+](=O)[O-])c3ccccc3c12
active: [2] active; positive | Test System: AMES SALMONELLA TYPHIMURIUM, Strain/Indicator: TA98, Metabolic Activation: RAT, LIVER, S-9, Method: PREINCUBATION active; positive | [5] active; positive | Test System: AMES SALMONELLA TYPHIMURIUM, Strain/Indicator: TA100, Metabolic Activation: RAT, LIVER, S-9, Method: PREINCUBATION active; positive
